This passage reports Ki results from ChEMBL document CHEMBL3421556, “Bis(aminomethyl)phosphinic Acid, a Highly Promising Scaffold for the Development of Bacterial Urease Inhibitors” (ACS Med Chem Lett, 2015).

The nature of test [1]: Inhibition of urease from Sporosarcina pasteurii CCM 2056 using urea as substrate by Berthelot colorimetric assay.
The nature of test [2]: Inhibition of urease from Proteus mirabilis CCM 1944 using urea as substrate by Berthelot colorimetric assay.

As to `NCP(=O)(O)CN`, the values for the Ki in test [1] (read-out: Ki) and in test [2] (read-out: Ki) were 80 µM and 82 µM, respectively.

Turning to `CNCP(=O)(O)CN`, the Ki in test [1] (read-out: Ki) stood at 1.59 µM; in test [2] (read-out: Ki), 34 µM.

With `CCCNCP(=O)(O)CN`, the figures for the Ki in test [1] (read-out: Ki) and in test [2] (read-out: Ki) were 11.2 µM and 16 µM, respectively.

For the compound `CCCCNCP(=O)(O)CN`, the Ki in test [1] (read-out: Ki) was 9.6 µM; in test [2] (read-out: Ki), 25.9 µM.

As to `CC(C)CNCP(=O)(O)CN`, the Ki came to 270 µM in test [1] (read-out: Ki) and 416 µM in test [2] (read-out: Ki).

Consider `CCCCCNCP(=O)(O)CN`, for which the results for the Ki in test [1] (read-out: Ki) and in test [2] (read-out: Ki) were 13.3 µM and 19 µM, respectively.

With `CCCCCCNCP(=O)(O)CN`, the Ki in test [1] (read-out: Ki) amounted to 0.108 µM; in test [2] (read-out: Ki), 0.202 µM.

For the compound `CCCCCCCNCP(=O)(O)CN`, the Ki turned out to be 543 µM in test [1] (read-out: Ki) and 778 µM in test [2] (read-out: Ki).

For the compound `CCCCCCCCNCP(=O)(O)CN`, the Ki result in test [1] and in test [2] was “Not Active” each time.

Consider `NCP(=O)(O)CNC1CCCCC1`, for which the Ki result in test [1] and in test [2] was “Not Active” throughout.

For `CN(C)CP(=O)(O)CN`, the Ki was found to be 4.66 µM in test [1] (read-out: Ki) and 24.4 µM in test [2] (read-out: Ki).

For `CCN(CC)CP(=O)(O)CN`, the Ki result in test [1] and in test [2] was “Not Active” in each case.

As for `NCP(=O)(O)CN1CCCCC1`, the Ki entry in test [1] and in test [2] was “Not Active” in each case.

In the case of `CN(Cc1ccccc1)CP(=O)(O)CN`, the values for the Ki in test [1] (read-out: Ki) and in test [2] (read-out: Ki) were 14.2 µM and 58.3 µM, respectively.

For `CNCP(=O)(O)CNC`, the Ki in test [1] (read-out: Ki) turned out to be 4.3 µM; in test [2] (read-out: Ki) it was 17.2 µM.

With `O=P(O)(CNCc1ccccc1)CNCc1ccccc1`, the Ki came out at 30.1 µM in test [1] (read-out: Ki) and 24.5 µM in test [2] (read-out: Ki).

As for `CN(C)CP(=O)(O)CN(C)C`, the Ki entry is “Not Active” in test [1] and 243 µM in test [2] (read-out: Ki).

Regarding `CC(=O)NO` [ACETOHYDROXAMIC ACID], the figures for the Ki in test [1] (read-out: Ki) and in test [2] (read-out: Ki) were 3.3 µM and 5.7 µM, respectively.
